The target of this experiment is human M4 receptor (Homo sapiens (Human), UniProt P08173). Nature of the experiment: Radioligand (tritiated N-methylscopolamine) binding assay, M4. The following applies: Ki against the M4 receptor; membranes from CHO cells expressing human M4; tritiated N-methylscopolamine 1.5 nM; read-out: Ki. A digest of the protocol:
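Test compound (12 concentrations, 10 μM to […]), 1.5 nM radioligand and CHO receptor membranes were co-incubated at 37 °C for 90 minutes in 50 mM HEPES buffer with 100 mM NaCl, 5 mM MgCl2 and 1 mM EDTA, pH 7.4. Membranes were then harvested onto polyethylenimine-pretreated filters and radioactivity was counted to determine Ki.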

The text below walks through data of US11033539B2, “Compounds of formulas (VII), (VIII), (IX), (XI), (XII), (XIII), and (XIV) as muscarinic receptor 4(M4) antagonists for treating neurological diseases” (Neurocrine Biosciences, Inc., priority 2015, dated 2021).

For orientation: Ki means a measure of affinity in units of concentration, obtained from inhibition or displacement.

Structures are written as SMILES.

human M4 receptor, sequence (P08173 whole entry): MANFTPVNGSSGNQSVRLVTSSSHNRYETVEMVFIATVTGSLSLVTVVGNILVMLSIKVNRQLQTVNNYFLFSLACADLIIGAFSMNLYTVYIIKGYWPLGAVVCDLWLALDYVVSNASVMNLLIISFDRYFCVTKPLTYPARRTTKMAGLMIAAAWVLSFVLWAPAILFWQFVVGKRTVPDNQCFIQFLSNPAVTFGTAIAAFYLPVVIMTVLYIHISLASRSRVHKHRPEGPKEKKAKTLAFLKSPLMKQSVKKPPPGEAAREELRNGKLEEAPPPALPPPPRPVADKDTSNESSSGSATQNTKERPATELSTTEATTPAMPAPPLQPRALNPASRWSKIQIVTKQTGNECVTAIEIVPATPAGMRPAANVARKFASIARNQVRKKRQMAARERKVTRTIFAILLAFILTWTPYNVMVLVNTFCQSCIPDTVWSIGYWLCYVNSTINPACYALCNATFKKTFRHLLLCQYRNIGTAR

Regarding `Cc1cncc(N2CCN(C(=O)NCCC3CCN(Cc4ccccc4)CC3)[C@H](C)C2)c1` [4-63, (2R)-N-[2-(1-benzylpiperidin-4-yl)ethyl]-2-methyl-4-(5-methylpyridin-3-yl)piperazine-1-carboxamide], the inhibition constant (Ki) was in the range of 100 to 1000 nM.

Turning to `C[C@@H]1CN(c2cnc3ccccc3c2)CCN1C(=O)NCCC1CCN(Cc2ccccc2)CC1` [4-40, (2R)-N-[2-(1-benzylpiperidin-4-yl)ethyl]-2-methyl-4-(quinolin-3-yl)piperazine-1-carboxamide], the Ki was 10 to 100 nM. As to `COC1(C(=O)NCCC2CCN(Cc3ccccc3)CC2)CCN(c2cc(C(F)(F)F)ccn2)CC1` [10-47, N-[2-(1-benzylpiperidin-4-yl)ethyl]-4-methoxy-1-[4-(trifluoromethyl)pyridin-2-yl]piperidine-4-carboxamide], the Ki lay in the range of 10 to 100 nM.

For `C[C@@H]1CN(c2ccnc(F)c2)CCN1C(=O)NCCC1CCN(Cc2ccccc2)CC1` [22-18], the Ki is 10 to 100 nM.

In the case of `C[C@@H]1CN(c2ncc(F)cn2)C[C@H](C)N1C(=O)NCCC1CCN(Cc2ccccc2)CC1` [5-19, (2S,6R)-N-[2-(1-benzylpiperidin-4-yl)ethyl]-4-(5-fluoropyrimidin-2-yl)-2,6-dimethylpiperazine-1-carboxamide], the Ki lay in the range of 10 to 100 nM.

`C[C@@H]1CN(c2cc(F)c(F)c(F)c2)CCN1C(=O)NCCC1CCN(Cc2ccccc2F)CC1` [6-5, (2R)-N-(2-{1-[(2-fluorophenyl)methyl]piperidin-4-yl}ethyl)-2-methyl-4-(3,4,5-trifluorophenyl)piperazine-1-carboxamide]: the Ki lay within 10 to 100 nM. The result for `O=C(NCCC1CCN(Cc2ccccc2)CC1)c1ccc(-c2cccs2)cc1` [9-55, N-[2-(1-benzylpiperidin-4-yl)ethyl]-4-(thiophen-2-yl)benzamide] reads 100 to 1000 nM. Next, `C[C@@H]1CN(c2ncc(C#N)cn2)C[C@H](C)N1C(=O)NCCC1CCN(CC2CCC2)CC1` [21-5]: 100 to 1000 nM. For `COC(=O)c1cc(C)nc(N2CCN(C(=O)NCCC3CCN(Cc4ccccc4)CC3)[C@H](C)C2)n1` [5-12, methyl 2-[(3R)-4-{[2-(1-benzylpiperidin-4-yl)ethyl]carbamoyl}-3-methylpiperazin-1-yl]-6-methylpyrimidine-4-carboxylate], the Ki lay in the range of 100 to 1000 nM. Regarding `Cc1c(C(=O)NCCC2CCN(Cc3ccccc3)CC2)cnc2cc(-c3ccc(C(F)(F)F)cc3)nn12` [17-8, N-[2-(1-benzylpiperidin-4-yl)ethyl]-7-methyl-2-[4-(trifluoromethyl)phenyl]pyrazolo[1,5-a]pyrimidine-6-carboxamide], the inhibitory constant (Ki) lay within 10 to 100 nM. Consider `O=C(NCCC1CCN(Cc2ccccc2)CC1)C1CCN(c2ccc(C(F)(F)F)cn2)CC1` [10-24, N-[2-(1-benzylpiperidin-4-yl)ethyl]-1-[5-(trifluoromethyl)pyridin-2-yl]piperidine-4-carboxamide], for which the Ki lay within 10 to 100 nM. The result for `Cc1ccc(-c2ccc(C(=O)NCCC3CCN(Cc4ccccc4)CC3)c(F)c2)cc1` [9-40, N-[2-(1-benzylpiperidin-4-yl)ethyl]-2-fluoro-4-(4-methylphenyl)benzamide] reads 10 to 100 nM. Turning to `C[C@@H]1CN(c2nccc(C#N)n2)CCN1C(=O)NCCC1CCN(Cc2ccccc2)CC1` [3-15, (2R)-N-[2-(1-benzylpiperidin-4-yl)ethyl]-4-(4-cyanopyrimidin-2-yl)-2-methylpiperazine-1-carboxamide], the Ki was in the range of 10 to 100 nM. With `N#Cc1cc(N2CCC(C(=O)NCCC3(O)CCN(Cc4ccccc4)CC3)CC2)ccc1F` [9-44, N-[2-(1-benzyl-4-hydroxypiperidin-4-yl)ethyl]-1-(3-cyano-4-fluorophenyl)piperidine-4-carboxamide], the Ki lay within 10 to 100 nM.

For `CN(C(=O)NCCC1CCN(Cc2ccccc2)CC1)C1CCN(c2ncc(C(F)(F)F)cc2Cl)C1` (stereo not shown) [8-16, 1-[2-(1-benzylpiperidin-4-yl)ethyl]-3-{1-[3-chloro-5-(trifluoromethyl)pyridin-2-yl]pyrrolidin-3-yl}-3-methylurea], the Ki was 10 to 100 nM. The result for `O=C(NCC1CCN(Cc2ccccc2)CC1)C1CCN(c2ncc(C(F)(F)F)cc2Cl)CC1` [9-65, N-[(1-benzylpiperidin-4-yl)methyl]-1-[3-chloro-5-(trifluoromethyl)pyridin-2-yl]piperidine-4-carboxamide] reads 100 to 1000 nM. Regarding `COc1ccc(C2CCN(C(=O)NCCC3CCN(Cc4ccccc4)CC3)CC2)cc1` [8-24, N-[2-(1-benzylpiperidin-4-yl)ethyl]-4-(4-methoxyphenyl)piperidine-1-carboxamide], the Ki is 100 to 1000 nM.

As to `Cc1c(C(=O)NCCC2CCN(Cc3ccccc3)CC2)cnc2cc(-c3cccc(F)c3)nn12` [18-6], the Ki was 10 to 100 nM. In the case of `COc1cccc(CN2CCC(CCNC(=O)c3ccc(OCc4ccccc4)cc3)CC2)c1O` [11-9, 4-(benzyloxy)-N-(2-{1-[(2-hydroxy-3-methoxyphenyl)methyl]piperidin-4-yl}ethyl)benzamide], the Ki was 100 to 1000 nM. The result for `C[C@@H]1CN(c2cc(F)c(F)c(F)c2)CCN1C(=O)NCCC1CCN(Cc2ccc(C#N)cc2)CC1` [6-2, (2R)-N-(2-{1-[(4-cyanophenyl)methyl]piperidin-4-yl}ethyl)-2-methyl-4-(3,4,5-trifluorophenyl)piperazine-1-carboxamide] reads 100 to 1000 nM; that for `COc1ccccc1C1CCN(C(=O)NCCC2CCN(Cc3ccccc3)CC2)CC1` [8-6, N-[2-(1-benzylpiperidin-4-yl)ethyl]-4-(2-methoxyphenyl)piperidine-1-carboxamide], 100 to 1000 nM; that for `C[C@@H]1CN(c2ncc(C#N)cn2)C[C@H](C)N1C(=O)NCCC1CCN(Cc2ccc(N(C)C)cc2)CC1` [6-43, (2R,6S)-4-(5-cyanopyrimidin-2-yl)-N-[2-(1-{[4-(dimethylamino)-phenyl]methyl}piperidin-4-yl)ethyl]-2,6-dimethylpiperazine-1-carboxamide], 10 to 100 nM. Take `C[C@@H]1CN(c2cc(F)c(F)c(F)c2)CCN1C(=O)NCCC1CCN(Cc2ccc3c(c2)OCCO3)CC1` [6-9, (2R)-N-{2-[1-(2,3-dihydro-1,4-benzodioxin-6-ylmethyl)piperidin-4-yl]ethyl}-2-methyl-4-(3,4,5-trifluorophenyl)piperazine-1-carboxamide]: the Ki was in the range of 10 to 100 nM. Next, `C[C@@H]1CN(c2ccnc(C(F)(F)F)c2)CCN1C(=O)NCCC1CCN(Cc2ccccc2)CC1` [22-29]: 10 to 100 nM; `O=C(OCCC1CCN(Cc2ccccc2)CC1)N1CCN(c2cc(F)c(F)c(F)c2)CC1` [12-12, 2-(1-benzylpiperidin-4-yl)ethyl 4-(3,4,5-trifluorophenyl)piperazine-1-carboxylate]: 10 to 100 nM; `C[C@@H]1CN(c2cc(F)ccc2F)CCN1C(=O)NCCC1CCN(Cc2ccccc2)CC1` [4-45, (2R)-N-[2-(1-benzylpiperidin-4-yl)ethyl]-4-(2,5-difluorophenyl)-2-methylpiperazine-1-carboxamide]: 10 to 100 nM. As for `C[C@@H]1CN(c2cnc(C(F)(F)F)nc2)C[C@H](C)N1C(=O)NCCC1CCN(Cc2ccc(N(C)C)cc2)CC1` [6-53, (2R,6S)-N-[2-(1-{[4-(dimethylamino)phenyl]methyl}piperidin-4-yl)ethyl]-2,6-dimethyl-4-[2-(trifluoromethyl)pyrimidin-5-yl]piperazine-1-carboxamide], the Ki was in the range of 10 to 100 nM.

`C[C@@H]1CN(c2ncc(C#N)cn2)C[C@H](C)N1C(=O)NCCC1CCN(CC2CCCCO2)CC1` (stereo partly shown) [21-9]: the Ki lay within 100 to 1000 nM.

Take `COC(=O)C(c1ccccc1)N1CCC(CCNC(=O)C2CCN(c3ccc(OC(F)(F)F)cc3)CC2)CC1` (stereo not drawn) [11-6, methyl 2-phenyl-2-{4-[2-({l-[4-(trifluoromethoxy)phenyl]piperidin-4-yl}formamido)ethyl]piperidin-1-yl}acetate]: the inhibitory constant (Ki) is 10 to 100 nM. Take `CN(C(=O)NCCC1CCN(Cc2ccccc2)CC1)C1CCN(c2ccc(C(F)(F)F)cc2)C1` (stereo not shown) [8-21, 1-[2-(1-benzylpiperidin-4-yl)ethyl]-3-methyl-3-{1-[4-(trifluoromethyl)phenyl]pyrrolidin-3-yl}urea]: the Ki lay in the range of 100 to 1000 nM. On to `CC(C)CNC(=O)c1cnc(N2CCN(C(=O)NCCC3CCN(Cc4ccccc4)CC3)[C@H](C)C2)nc1` [27-12], for which the Ki is 10 to 100 nM. Consider `C[C@@H]1CN(c2ncc(C(F)(F)F)cn2)CCN1C(=O)NCCC1CCN(Cc2ccccc2C#N)CC1` [6-34, (2R)-N-(2-{1-[(2-cyanophenyl)methyl]piperidin-4-yl}ethyl)-2-methyl-4-[5-(trifluoromethyl)pyrimidin-2-yl]piperazine-1-carboxamide], for which the Ki fell in the range of 100 to 1000 nM.

On to `C[C@@H]1CN(c2ccc(C#N)nn2)C[C@H](C)N1C(=O)NCCC1CCN(Cc2ccccc2)CC1` [23-3, (2R,6S)-N-[2-(1-benzylpiperidin-4-yl)ethyl]-4-(6-cyanopyridazin-3-yl)-2,6-dimethylpiperazine-1-carboxamide], for which the Ki lay in the range of 10 to 100 nM.

Consider `N#Cc1cccc(N2CCN(C(=O)OCCC3CCN(Cc4ccccc4)CC3)CC2)c1` [12-2, 2-(1-benzylpiperidin-4-yl)ethyl 4-(3-cyanophenyl)piperazine-1-carboxylate], for which the inhibition constant (Ki) lay in the range of 100 to 1000 nM. On to `O=C(NCCC1CCN(Cc2ccccc2)CC1)C1CCN(c2cc(C(F)(F)F)ccn2)CC1` [10-32, N-[2-(1-benzylpiperidin-4-yl)ethyl]-1-[4-(trifluoromethyl)pyridin-2-yl]piperidine-4-carboxamide], for which the Ki lay within 10 to 100 nM. Consider `CN(CCNC(=O)C1CCN(c2ccc(OC(F)(F)F)c(F)c2)CC1)C1CN(Cc2ccccc2)CC1CO` (stereo not shown) [9-35, N-(2-{[1-benzyl-4-(hydroxymethyl)pyrrolidin-3-yl](methyl)amino}ethyl)-1-[3-fluoro-4-(trifluoromethoxy)phenyl]piperidine-4-carboxamide], for which the Ki fell in the range of 100 to 1000 nM. Turning to `C[C@@H]1CN(c2ncc(C#N)cn2)C[C@H](C)N1C(=O)NCCC1CCN(Cc2cccnc2F)CC1` [6-64, (2R,6S)-4-(5-cyanopyrimidin-2-yl)-N-(2-{1-[(2-fluoropyridin-3-yl)methyl]piperidin-4-yl}ethyl)-2,6-dimethylpiperazine-1-carboxamide], the Ki fell in the range of 100 to 1000 nM.
